Where two headings read alike, the source gives them in different places. No end group written: not given here.
Legend:
[1] = stabilizing effect of other amino acids upon thymopentin in aqueous formulation
Description: To the peptide solution is added a sufficient amount of glycine to stabilize the solution.

[2] = immunostimulation in laboratory animals, injectable aqueous formulation; type: in vivo; details: injectable aqueous formulation prepared immediately prior to use
Description: (§1) In experiments with thymopentin, it was observed that the optimal doses of thymopentin in an injectable aqueous formulation for immunostimulation in laboratory animals was about 1 μg/kg of body weight. For laboratory use, these dosages were prepared immediately prior to use.

[3] = human clinical research, clinical pharmacological result; type: in vivo; details: patients
Description: as §1

stabilizing effect upon thymopentin [1] | Molecule | other results
do not exert the stabilizing effect | N=C(N)NCCC[C@H](N)C(=O)O [arginine] | 
do not exert the stabilizing effect | N[C@@H](Cc1c[nH]c2ccccc12)C(=O)O [tryptophan] | 
 | RKDVY [thymopentin] | optimal dose for immunostimulation [2]: about 1 μg/kg of body weight; dose required to produce a clinical pharmacological result [3]: ≥ 1 mg/kg body weight
do not exert the stabilizing effect | N[C@@H](Cc1ccc(O)cc1)C(=O)O [tyrosine] | 
do not exert the stabilizing effect | N[C@@H](Cc1c[nH]cn1)C(=O)O [histidine] | 
do not exert the stabilizing effect | C[C@H](N)C(=O)O [alanine] | 
do not exert the stabilizing effect | O=C(O)[C@@H]1CCCN1 [proline] | 
do not exert the stabilizing effect | N[C@@H](CC(=O)O)C(=O)O [aspartic acid] | 
 | N[C@@H](CCC(=O)O)C(=O)O [glutamic acid] | stabilizing effect upon thymopentin ([1]; amino acid in place of glycine): do not exert the stabilizing effect

Molecule | stabilizing effect upon thymopentin [1] | other results
NCCCC[C@H](N)C(=O)O [lysine] | do not exert the stabilizing effect | 
